{"source": "patent US20260207668A1", "about": "“MANIPULATION OF ADRENERGIC RECEPTORS TO INFLUENCE IMMUNE CELL DIFFERENTIATION AND FUNCTION” (Salk Institute for Biological Studies, priority 2022, published 2026)", "key": {"YUMMER1.7 melanomas": {"system": "YUMMER1.7 melanomas", "assay": "YUMMER1.7 melanoma in mice, beta-blocker alone or with ICB", "type": "in vivo", "conditions": "for cytokine production by CD8+ T cells: combination with ICB, tumor CD8+ T cells stimulated with PMA/ionomycin"}, "PDAC tumors": {"system": "PDAC tumors", "assay": "Orthotopic PDAC (6419c5) in mice, beta-blocker alone or with ICB", "type": "in vivo", "conditions": "for tumor growth: agent alone; for tumor growth (abdominal ultrasound volume and tumor mass): in combination with ICB (anti-PD-1 + anti-CTLA-4)"}, "ADRB1": {"biological_target": "ADRB1 (Mus musculus, UniProt P34971)", "sequence (P34971 whole entry)": "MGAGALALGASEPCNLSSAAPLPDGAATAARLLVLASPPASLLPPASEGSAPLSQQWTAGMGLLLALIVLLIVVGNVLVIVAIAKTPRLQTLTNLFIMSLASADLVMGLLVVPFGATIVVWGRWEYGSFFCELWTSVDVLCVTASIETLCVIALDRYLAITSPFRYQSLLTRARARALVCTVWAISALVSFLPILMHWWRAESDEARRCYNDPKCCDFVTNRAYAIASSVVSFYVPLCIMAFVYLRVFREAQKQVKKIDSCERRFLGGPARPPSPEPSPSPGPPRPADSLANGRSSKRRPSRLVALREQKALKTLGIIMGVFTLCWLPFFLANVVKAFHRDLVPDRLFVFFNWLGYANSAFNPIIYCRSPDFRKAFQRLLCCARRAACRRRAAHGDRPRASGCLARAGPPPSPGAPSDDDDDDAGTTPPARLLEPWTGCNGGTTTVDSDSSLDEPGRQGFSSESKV", "design": "dose or concentration left out as unconfirmed", "conditions": "Adrb1 OE P14+ cells vs empty vector; for CD8+ T cell cytokine production: gp33 stimulation; for CD8+ T cell proliferation: up to 6 days of culture"}, "LCMV-clone 13": {"system": "LCMV-clone 13", "type": "in vivo, mice"}, "ADRB1 vs. ADRB2": {"system": "ADRB1 vs. ADRB2", "conditions": "relative to β1; cited from earlier work"}, "[1]": {"system": "CD8+ T cells in PDAC tumors", "assay": "scRNA Seq of tumor infiltrating T cells from PDAC tumors", "type": "in vivo, mice", "procedure": "For scRNA Seq of PDAC tumors 4 tumors each per treatment condition were pooled and stained for sorting. The following cell populations were sorted into RPMI supplemented with 20% fetal bovine serum: Thy1.2^+ CD45.2^+ (T cells), Thy1.2^− CD45.2^+ (Non T cell leukocytes), YFP^+ CD45.2^− (tumor cells). Sorted cells were spun down at 420 rcf at 4° C. for 4 minutes, resuspended in PBS+2% fetal bovine serum and mixed at 8 k Thy1.2^+ CD45.2^+, 10 k Thy1.2^− CD45.2^+, 2 k YFP^+ CD45.2^− for a total of 20 k cells per sample.\nSamples were then loaded onto Chromium Chip G (10× Genomics) and partitioned into Gel Bead-in-Emulsions using a chromium controller (10× Genomics). Single cell RNA libraries were generated following the manufacturer's instructions of the Chromium Next GEM Single Cell 3′ Reagent Kit v3.1 (10× Genomics) followed by sequencing on a NovaSeq6000 at the NGS Core of the Salk Institute. Cellranger count was used to align reads to the mm10 genome and YFP. The resulting counts matrix was then processed using the R package scran^54 and outlying cells identified with quickPerCellQC (stats, percent_subsets=“subsets_Mito_percent”) were discarded. Data was log normalized using quickCluster, computeSumFactors and logNormCounts. The top 10% most variable genes were calculated using modelGeneVarByPoisson and getTopHVGs and then used in the PCA calculation using denoisePCA. The top 50 principal components were used to calculate a UMAP dimensional reduction using the runUMAP function (metric=“cosine”, min_dist=0.3 and n_neighbors=30). Leiden clustering was performed with igraph's cluster_leiden (with resolution=0.05) after running buildSNNGraph (with k=25). Cell types were annotated using SingleR^55 and the ImmGenData labels as a reference using default parameters. For further analysis the dataset was filtered on T cells according to the SingleR labels and variable genes, PCA and UMAP were calculated with the same settings described above. Clustering of T cells was performed using cluster_leiden with the resolution set to 1.8. For visualization, data imputation was performed using MAGIC^56 using the exact solver. To assign biological relevance to the T cell clusters, a heatmap of the median log normalized expression (using aggregateAcrossCells) of selected markers was generated and visualized using ComplexHeatmap^57. Differential genes for the clusters were identified by performing pairwise comparison of one cluster against all other clusters using the findMarkers function (test.type=“binom”, lfc=0.1, direction=“up”). Gene signatures for T cell exhaustion and TRn cells were obtained from Wherry et al and Milner et al respectively^45,58 in addition to the MSigDB hallmark gene sets. Gene signature scores were calculated using AUCell^59 (aucMaxRank set to 5%). […]"}, "[2]": {"conditions": "gp33+ CD8+ T cells, d37 p.i., vs untreated"}}}
{"smiles": "Cn1cc(C(F)(F)F)nc1-c1ccc(OCC(O)CNCCOc2ccc(O)c(C(N)=O)c2)cc1", "note": "(stereo not shown) [CGP 20712A]", "values": [{"measurement": "cytokine production by CD8+ T cells", "setting": "YUMMER1.7 melanomas", "value": "significantly increased"}]}
{"smiles": "Cc1ccc(OCC(O)C(C)NC(C)C)c2c1CCC2", "note": "(stereo not shown) [ICI 11855135]", "values": [{"measurement": "tumor growth", "setting": "PDAC tumors", "value": "failed to suppress tumor growth"}, {"measurement": "tumor growth (abdominal ultrasound volume and tumor mass)", "setting": "PDAC tumors", "value": "failed to suppress tumor growth"}]}
{"smiles": "CNCC(O)c1ccc(O)c(O)c1", "note": "(stereo not shown) [adrenaline]", "values": [{"measurement": "CD8+ T cell cytokine production", "setting": "ADRB1", "value": "impairs"}, {"measurement": "CD8+ T cell proliferation", "setting": "ADRB1", "value": "impairs"}]}
{"smiles": "CC(C)NCC(O)COc1ccc(CC(N)=O)cc1", "note": "(stereo not shown) [atenolol]", "values": [{"measurement": "tumor growth", "setting": "PDAC tumors", "value": "failed to suppress tumor growth"}, {"measurement": "tumor growth (abdominal ultrasound volume and tumor mass)", "setting": "PDAC tumors", "value": "failed to suppress tumor growth"}, {"measurement": "frequencies of IFNγ-, TNF- and GZMB-producing virus-specific CD8+ T cells", "setting": "LCMV-clone 13; after gp33 stimulation for 6 h, d37 p.i., vs untreated", "value": "higher frequencies"}, {"measurement": "expansion of virus-specific CD8+ T cells that displayed features of TEXprog, at the expense of TEXeff and TEXterm", "setting": "LCMV-clone 13; atenolol 0.5 mg/ml in drinking water throughout infection vs untreated, spleen, d37 p.i.", "value": "greater expansion"}, {"measurement": "amounts of CREM in virus-specific CD8+ T cells", "setting": "LCMV-clone 13; [2]", "value": "lowered"}, {"measurement": "amounts of cAMP in virus-specific CD8+ T cells", "setting": "LCMV-clone 13; [2]", "value": "lowered"}, {"measurement": "viral titers", "setting": "LCMV-clone 13; serum of LCMV-clone 13-infected mice, vs untreated", "value": "lower viral titers"}, {"measurement": "block of the β2-adrenergic receptor", "setting": "ADRB1 vs. ADRB2", "value": "to a lower degree"}, {"measurement": "tumor cell proliferation (tumor expression of Ki67 relative to IgG, IHC)", "setting": "YUMMER1.7 melanomas; beta-blocker alone vs IgG, YUMMER tumors", "value": "does not directly affect tumor cell proliferation"}, {"measurement": "effects on differentiation of exhausted T cells", "setting": "YUMMER1.7 melanomas; combination with ICB (anti-PD-1 + anti-CTLA-4)", "value": "did not extend beyond those of the checkpoint therapy alone"}, {"measurement": "tumor size (normalized tumor mass relative to IgG control)", "setting": "YUMMER1.7 melanomas; combination with ICB (anti-PD-1 + anti-CTLA-4), compared to untreated or beta-blocker alone", "value": "significantly smaller"}, {"measurement": "cytokine production by CD8+ T cells", "setting": "YUMMER1.7 melanomas", "value": "dramatically increased"}]}
{"smiles": "NC[C@H](O)c1ccc(O)c(O)c1", "note": "[noradrenaline]", "values": [{"measurement": "CD8+ T cell cytokine production", "setting": "ADRB1", "value": "impairs"}, {"measurement": "CD8+ T cell proliferation", "setting": "ADRB1", "value": "impairs"}]}
{"smiles": "CC(C)NCC(O)COc1cccc2ccccc12", "note": "(stereo not shown) [propranolol]", "values": [{"measurement": "tumor cell proliferation (tumor expression of Ki67 relative to IgG, IHC)", "setting": "PDAC tumors; beta-blocker alone vs IgG, PDAC tumors", "value": "does not directly affect tumor cell proliferation"}, {"measurement": "CD8+ T cells in the tumors", "setting": "PDAC tumors; combination with ICB", "value": "increase"}, {"measurement": "production of IFNγ and GZMB", "setting": "PDAC tumors; combination with ICB, after PMA/ionomycin stimulation", "value": "increased production"}, {"measurement": "expression of the activation/exhaustion markers PD-1 and TIM3", "setting": "PDAC tumors; combination with ICB, tumor CD8+ T cells", "value": "higher expression"}, {"measurement": "tumor growth (abdominal ultrasound volume and tumor mass)", "setting": "PDAC tumors", "value": "significantly reduced"}, {"measurement": "T cell clusters 1 and 5 (TRM-like and exhausted CD8+ T cells)", "setting": "[1]; combination treatment with ICB", "value": "enriched"}, {"measurement": "cytokine and chemokine production (Gzma, Tgfb1, Gzmb, Xcl1, Ccl3, Ccl4, Ifng, Prf1) of CD8+ T cells", "setting": "[1]; combination treatment with ICB", "value": "enhanced"}, {"measurement": "signatures for T cell response, exhaustion and TRM", "setting": "[1]; combination treatment with ICB", "value": "enriched"}, {"measurement": "upregulated genes in CD8+ T cells compared to the isotype control", "setting": "[1]; propranolol and ICB therapy", "value": 272, "unit": "genes"}]}
